Source: the supplement of paper PMC5908809

Experiments:
SNK-6 (IL-2 2.5 ng/mL) [1] = test: percent inhibition of viability; higher = more inhibition; conditions: 72 h
YT (IL-2 2.5 ng/mL) [2] = test: as above; conditions: 72 h
KAI3 (IL-2 2.5 ng/mL) [3] = test: as above; conditions: 72 h
[4] = test system: normal primary NK cells, pool 1 (3 donors), resting (IL-2 0 ng/mL); test: as above; conditions: 72 h
KHYG-1 (IL-2 2.5 ng/mL) [5] = test: as above; conditions: 72 h
NKL (IL-2 2.5 ng/mL) [6] = test: as above; conditions: 72 h
NK-YS (IL-2 2.5 ng/mL) [7] = test: as above; conditions: 72 h
[8] = test system: normal primary NK cells, pool 3 (3 donors) (IL-2 2.5 ng/mL); test: as above; conditions: 72 h
DERL-7 (IL-2 2.5 ng/mL) [9] = test: as above; conditions: 72 h
IMC-1 (IL-2 20 ng/mL) [10] = test: as above; conditions: 72 h
[11] = test system: normal primary NK cells, pool 1 (3 donors) (IL-2 2.5 ng/mL); test: as above; conditions: 72 h
NK-92 (IL-2 2.5 ng/mL) [12] = test: as above; conditions: 72 h
[13] = test system: normal primary NK cells, pool 2 (3 donors) (IL-2 2.5 ng/mL); test: as above; conditions: 72 h
[14] = test system: normal NK cells expanded with K562-aAPC; test: drug sensitivity score (DSS) (DSS units); higher = more sensitive; extreme values may be limits of the assay; conditions: 72 h; IL-2 2.5 ng/mL
Experimental: (§1)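 Drug sensitivity and resistance testing on K562-aAPC-expanded normal NK cells: 5 concentrations (10-fold steps over a 10,000-fold range), 72 h at 37 °C, viability by CellTiter-Glo normalised to DMSO and benzethonium chloride controls; DSS from the fitted curve.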

SNK-6 (IL-2 2.5 ng/mL) [15] = test: as above; conditions: 72 h
YT (IL-2 2.5 ng/mL) [16] = test: as above; conditions: 72 h
KAI3 (IL-2 2.5 ng/mL) [17] = test: as above; conditions: 72 h
[18] = test system: normal primary NK cells, pool 1 (3 donors), resting (IL-2 0 ng/mL); test: as above; conditions: 72 h
KHYG-1 (IL-2 2.5 ng/mL) [19] = test: as above; conditions: 72 h
NKL (IL-2 2.5 ng/mL) [20] = test: as above; conditions: 72 h
NK-YS (IL-2 2.5 ng/mL) [21] = test: as above; conditions: 72 h
[22] = test system: normal primary NK cells, pool 3 (3 donors) (IL-2 2.5 ng/mL); test: as above; conditions: 72 h
DERL-7 (IL-2 2.5 ng/mL) [23] = test: as above; conditions: 72 h
IMC-1 (IL-2 20 ng/mL) [24] = test: as above; conditions: 72 h
[25] = test system: normal primary NK cells, pool 1 (3 donors) (IL-2 2.5 ng/mL); test: as above; conditions: 72 h
NK-92 (IL-2 2.5 ng/mL) [26] = test: as above; conditions: 72 h
[27] = test system: normal primary NK cells, pool 2 (3 donors) (IL-2 2.5 ng/mL); test: as above; conditions: 72 h
[28] = test system: normal NK cells expanded with K562-aAPC; test: percent inhibition of viability; higher = more inhibition; conditions: 72 h, IL-2 2.5 ng/mL
Experimental: as §1

O=S(=O)(c1cccc2cnccc12)N1CCCNCC1 [Fasudil] (max concentration tested 50000 nM)
percent inhibition of viability [%]
Conditions | 5 nM | 50 nM | 500 nM | 5000 nM | 50000 nM
DERL-7 (IL-2 2.5 ng/mL) [9] | -1.59 | 2.77 | 2.04 | 10.3 | 31.5
IMC-1 (IL-2 20 ng/mL) [10] | -3.69 | 1.08 | -1.1 | -3.21 | -0.77
KAI3 (IL-2 2.5 ng/mL) [3] | -9.98 | -12.1 | -8.77 | 16.4 | 52.6
KHYG-1 (IL-2 2.5 ng/mL) [5] | -1.86 | -2.81 | -0.3 | 5.17 | 30.2
NK-92 (IL-2 2.5 ng/mL) [12] | -0.3 | -5 | -7.96 | 16.5 | 50
NK-YS (IL-2 2.5 ng/mL) [7] | -10.2 | -12.7 | -8.89 | -1.5 | 17.1
NKL (IL-2 2.5 ng/mL) [6] | -10.3 | -10.6 | -5.56 | 1.78 | 24
SNK-6 (IL-2 2.5 ng/mL) [1] | -14.4 | -9.67 | -10.4 | -26.7 | 19.7
YT (IL-2 2.5 ng/mL) [2] | -0.42 | -0.99 | 2.43 | 9.94 | 50.6
[4] | -18 | 5.15 | -1.43 | 5.51 | 16.6
[8] | -8.61 | 9.41 | 3.96 | -0.18 | 54.6
[11] | -14.3 | 13.1 | 11.4 | 15.1 | 52.8
[13] | -9.61 | 4.29 | 4.21 | 9.95 | 82.7
[28] | -7 | -8.84 | -5.88 | 5.82 | 20.5

Conditions | drug sensitivity score
DERL-7 (IL-2 2.5 ng/mL) [23] | 2.67
IMC-1 (IL-2 20 ng/mL) [24] | 0
KAI3 (IL-2 2.5 ng/mL) [17] | 5.22
KHYG-1 (IL-2 2.5 ng/mL) [19] | 2.15
NK-92 (IL-2 2.5 ng/mL) [26] | 5.03
NK-YS (IL-2 2.5 ng/mL) [21] | 0.3
NKL (IL-2 2.5 ng/mL) [20] | 1.12
SNK-6 (IL-2 2.5 ng/mL) [15] | 0.22
YT (IL-2 2.5 ng/mL) [16] | 4.32
[14] | 1.35
[18] | 0.88
[22] | 2.91
[25] | 4.47
[27] | 6.25

CC(C)(C)NC(=O)[C@H]1CC[C@H]2[C@@H]3CC[C@H]4NC(=O)C=C[C@]4(C)[C@H]3CC[C@]12C [Finasteride] (max concentration tested 10000 nM)
percent inhibition of viability [%]
Conditions | 1 nM | 10 nM | 100 nM | 1000 nM | 10000 nM
DERL-7 (IL-2 2.5 ng/mL) [9] | 8.57 | -6.64 | 5.89 | -0.19 | 12.4
IMC-1 (IL-2 20 ng/mL) [10] | -6.06 | -4.68 | -1.34 | 2.37 | 27.1
KAI3 (IL-2 2.5 ng/mL) [3] | 2.67 | 5.19 | 10.5 | 4.13 | 28.6
KHYG-1 (IL-2 2.5 ng/mL) [5] | -6.44 | -5.37 | 3.63 | 2.04 | 10.9
NK-92 (IL-2 2.5 ng/mL) [12] | -2.71 | -10.9 | 0.46 | 4.24 | 44.5
NK-YS (IL-2 2.5 ng/mL) [7] | -10.4 | -1.41 | -5.34 | 5.54 | 10.5
NKL (IL-2 2.5 ng/mL) [6] | 5.94 | -9.09 | 10.7 | 13 | 34.2
SNK-6 (IL-2 2.5 ng/mL) [1] | -3.02 | -28.7 | -17.3 | -25.3 | -11.3
YT (IL-2 2.5 ng/mL) [2] | 4.41 | -7.13 | 5.2 | -3.12 | 30.2
[4] | 1.92 | 14 | 3.85 | 6.98 | 20.4
[8] | 1.72 | -0.73 | 15.2 | -6.78 | 1.67
[11] | -9.53 | 1.23 | 3.62 | -7.18 | 3.28
[13] | -2.14 | -1.25 | 3.98 | -1.8 | 12.4
[28] | -10.9 | -11.1 | -5.78 | 1.82 | 14.1

Conditions | drug sensitivity score
DERL-7 (IL-2 2.5 ng/mL) [23] | 0.06
IMC-1 (IL-2 20 ng/mL) [24] | 1.45
KAI3 (IL-2 2.5 ng/mL) [17] | 1.87
KHYG-1 (IL-2 2.5 ng/mL) [19] | 0.04
NK-92 (IL-2 2.5 ng/mL) [26] | 2.97
NK-YS (IL-2 2.5 ng/mL) [21] | 0.05
NKL (IL-2 2.5 ng/mL) [20] | 2.88
SNK-6 (IL-2 2.5 ng/mL) [15] | 0
YT (IL-2 2.5 ng/mL) [16] | 1.11
[14] | 0.32
[18] | 0.89
[22] | 0
[25] | 0
[27] | 0.04

CCCCCCCCc1ccc(CCC(N)(CO)CO)cc1 [Fingolimod] (max concentration tested 10000 nM)
percent inhibition of viability [%]
Conditions | 1 nM | 10 nM | 100 nM | 1000 nM | 10000 nM
DERL-7 (IL-2 2.5 ng/mL) [9] | 2.13 | -1.97 | 5.25 | 14.2 | 100
IMC-1 (IL-2 20 ng/mL) [10] | 1.04 | 3.67 | 4.21 | 10.1 | 101
KAI3 (IL-2 2.5 ng/mL) [3] | -5.76 | 2.36 | -1.55 | 21.5 | 101
KHYG-1 (IL-2 2.5 ng/mL) [5] | -0.79 | 1.01 | 0.07 | 10.2 | 102
NK-92 (IL-2 2.5 ng/mL) [12] | 1.29 | 3.97 | 7.28 | -5.13 | 103
NK-YS (IL-2 2.5 ng/mL) [7] | -1.37 | 0.63 | 1.86 | 10.4 | 102
NKL (IL-2 2.5 ng/mL) [6] | -3 | 6.8 | 9.6 | 30.1 | 101
SNK-6 (IL-2 2.5 ng/mL) [1] | 2.86 | 25.2 | 18.7 | 13.7 | 101
YT (IL-2 2.5 ng/mL) [2] | 1.77 | 4.72 | 1.22 | 8.33 | 101
[4] | 0.28 | -1.75 | -1.3 | -3.49 | 100
[8] | -17.7 | -6.84 | 5.41 | -5.02 | 100
[11] | -0.71 | -3.03 | -0.07 | 8.48 | 101
[13] | -5.21 | -6.36 | 4.8 | 16 | 101
[28] | -2.7 | -1.12 | 2.03 | 16.4 | 101

Conditions | drug sensitivity score
DERL-7 (IL-2 2.5 ng/mL) [23] | 7.91
IMC-1 (IL-2 20 ng/mL) [24] | 7.23
KAI3 (IL-2 2.5 ng/mL) [17] | 8.95
KHYG-1 (IL-2 2.5 ng/mL) [19] | 7.28
NK-92 (IL-2 2.5 ng/mL) [26] | 5.44
NK-YS (IL-2 2.5 ng/mL) [21] | 7.3
NKL (IL-2 2.5 ng/mL) [20] | 9.92
SNK-6 (IL-2 2.5 ng/mL) [15] | 7.85
YT (IL-2 2.5 ng/mL) [16] | 6.91
[14] | 8.27
[18] | 5.33
[22] | 5.22
[25] | 6.91
[27] | 8.2
